Data from PubChem BioAssay AID330 (DTP/NCI, 2004).
Several values for one entry are separate records, joined by “and”; a condition that tells them apart may be missing. Equal entries are not always repeated. Toxic doses and inconclusive results are not listed. Peptide text beside a SMILES is read from it.

Test system: P388 leukemia ip, CD2F1 mice, survival T/C
Experiment: NCI In Vivo Anticancer Drug Screen. Data for tumor model P388 Leukemia (intraperitoneal) in CD2F1 (CDF1) mice
Settings: endpoint: median survival time, higher = longer survival
Method in brief: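 Mice carrying the transplanted tumor received test compound or vehicle. Survival was recorded in each group, and the value is the treated-group measurement divided by that of the vehicle-treated control group.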

[1] = dose: 50.0 mg/kg/injection, schedule: Q01DX005 (ip), vehicle: Klucel (hydroxypropylcellulose) (HPC)
[2] = dose: 100.0 mg/kg/injection, schedule: Q01DX005 (ip), vehicle: Klucel (hydroxypropylcellulose) (HPC)
[3] = dose: 200.0 mg/kg/injection, schedule: Q01DX005 (ip), vehicle: Klucel (hydroxypropylcellulose) (HPC)
[4] = dose: 12.5 mg/kg/injection, schedule: Q01DX009 (ip), vehicle: saline
[5] = dose: 50.0 mg/kg/injection, schedule: Q01DX001 (ip), vehicle: Klucel (hydroxypropylcellulose) (HPC)
[6] = dose: 100.0 mg/kg/injection, schedule: Q01DX001 (ip), vehicle: Klucel (hydroxypropylcellulose) (HPC)
[7] = dose: 50.0 mg/kg/injection, schedule: Q01DX009 (ip), vehicle: saline
[8] = dose: 100.0 mg/kg/injection, schedule: Q01DX009 (ip), vehicle: saline
[9] = dose: 60.0 mg/kg/injection, schedule: Q01DX005 (ip), vehicle: Klucel (hydroxypropylcellulose) (HPC)
[10] = dose: 120.0 mg/kg/injection, schedule: Q01DX005 (ip), vehicle: Klucel (hydroxypropylcellulose) (HPC)
[11] = dose: 50.0 mg/kg/injection, schedule: Q01DX009 (ip), vehicle: saline with Tween-80
[12] = dose: 100.0 mg/kg/injection, schedule: Q01DX009 (ip), vehicle: saline with Tween-80
[13] = dose: 200.0 mg/kg/injection, schedule: Q01DX009 (ip), vehicle: saline with Tween-80
[14] = dose: 200.0 mg/kg/injection, schedule: Q01DX001 (ip), vehicle: Klucel (hydroxypropylcellulose) (HPC)

## Cc1ccccc1N=C(c1ccccc1)C1C(=O)c2ccccc2C1=O
dose: 50.0 mg/kg/injection, schedule: Q01DX005 (ip), vehicle: DMSO
  T/C: 100 % of control
[1]
  T/C: 103 % of control
dose: 100.0 mg/kg/injection, schedule: Q01DX005 (ip), vehicle: DMSO
  T/C: 98 % of control
[2]
  T/C: 106 % of control
dose: 200.0 mg/kg/injection, schedule: Q01DX005 (ip), vehicle: DMSO
  T/C: 97 % of control
[3]
  T/C: 103 % of control
dose: 400.0 mg/kg/injection, schedule: Q01DX005 (ip), vehicle: DMSO
  T/C: 101 % of control
dose: 800.0 mg/kg/injection, schedule: Q01DX005 (ip), vehicle: DMSO
  T/C: 97 % of control

## COc1cc2cc[n+]3c(C)c4cc5c(cc4cc3c2cc1OC)OCO5 (tested in a mixture with another compound)
dose: 0.88 mg/kg/injection, schedule: Q01DX009 (ip), vehicle: saline
  T/C: 124 % of control
dose: 8.33 mg/kg/injection, schedule: Q01DX009 (ip), vehicle: saline
  T/C: 166 % of control
[4]
  T/C: 175 % of control
dose: 18.7 mg/kg/injection, schedule: Q01DX009 (ip), vehicle: saline
  T/C: 198 % of control

## CC(C)(C)N1OC2C=CC1CC2O (stereo not drawn) (tested in a mixture with another compound)
dose: 25.0 mg/kg/injection, schedule: Q01DX001 (ip), vehicle: Klucel (hydroxypropylcellulose) (HPC)
  T/C: 113 % of control
[5]
  T/C: 114 % of control
[6]
  T/C: 107 % of control

## CC(Nc1cccc([N+](=O)[O-])c1)S(=O)(=O)O (stereo not drawn)
[7]
  T/C: 97 % of control
[8]
  T/C: 100 % of control
dose: 200.0 mg/kg/injection, schedule: Q01DX009 (ip), vehicle: saline
  T/C: 97 % of control

## CCC(C)C(NC(=O)C(N)CC(C)C)C(=O)O (stereo not drawn) (H-Leu-Ile-OH; configuration not given here)
dose: 60.0 mg/kg/injection, schedule: Q01DX005 (ip), vehicle: saline
  T/C: 108 % of control
dose: 120.0 mg/kg/injection, schedule: Q01DX005 (ip), vehicle: saline
  T/C: 108 % of control
dose: 240.0 mg/kg/injection, schedule: Q01DX005 (ip), vehicle: saline
  T/C: 104 % of control

## CC(O)CNC(=O)Nc1ccccc1 (stereo not drawn)
[9]
  T/C: 97 % of control
[10]
  T/C: 95 % of control
dose: 240.0 mg/kg/injection, schedule: Q01DX005 (ip), vehicle: Klucel (hydroxypropylcellulose) (HPC)
  T/C: 88 % of control

## CC(C)(C)c1cc(C(C)(C)c2ccccc2)cc(Cc2cc(C(C)(C)c3ccccc3)cc(C(C)(C)C)c2O)c1O
[11]
  T/C: 92 % of control
[12]
  T/C: 94 % of control
[13]
  T/C: 93 % of control
dose: 400.0 mg/kg/injection, schedule: Q01DX009 (ip), vehicle: saline with Tween-80
  T/C: 89 % of control

## CCCCCCCCOC(=O)COc1ccc(Cl)cc1Cl
[5]
  T/C: 113 % of control
dose: 50.0 mg/kg/injection, schedule: Q01DX001 (ip), vehicle: saline with Tween-80
  T/C: 98 % of control
[6]
  T/C: 109 % of control
dose: 100.0 mg/kg/injection, schedule: Q01DX001 (ip), vehicle: saline with Tween-80
  T/C: 100 % of control
[14]
  T/C: 122 % of control
dose: 200.0 mg/kg/injection, schedule: Q01DX001 (ip), vehicle: saline with Tween-80
  T/C: 105 % of control

## S=c1[nH]cc2cnccn12
dose: 50.0 mg/kg/injection, schedule: Q04DX003 (ip), vehicle: saline with Tween-80
  T/C: 100 % of control
dose: 100.0 mg/kg/injection, schedule: Q04DX003 (ip), vehicle: saline with Tween-80
  T/C: 110 % of control
dose: 200.0 mg/kg/injection, schedule: Q04DX003 (ip), vehicle: saline with Tween-80
  T/C: 110 % of control

## CCC(O)C1(OC)C=CC(OC)O1 (stereo not drawn)
dose: 3.12 mg/kg/injection, schedule: Q01DX005 (ip), vehicle: saline
  T/C: 100 % of control
dose: 6.25 mg/kg/injection, schedule: Q01DX005 (ip), vehicle: saline
  T/C: 97 % of control
dose: 12.5 mg/kg/injection, schedule: Q01DX005 (ip), vehicle: saline
  T/C: 101 % of control

## C1=C(N2CCCC2)C(=[N+]2CCCC2)C(N2CCCC2)=C1
dose: 3.75 mg/kg/injection, schedule: Q01DX005 (ip), vehicle: saline with Tween-80
  T/C: 101 % of control
dose: 7.5 mg/kg/injection, schedule: Q01DX005 (ip), vehicle: saline with Tween-80
  T/C: 100 % of control
dose: 15.0 mg/kg/injection, schedule: Q01DX005 (ip), vehicle: saline with Tween-80
  T/C: 105 % of control

## O=c1[nH]c2ccccc2n1CCCN1CCN(C(c2ccccc2)c2ccccc2)CC1
[11]
  T/C: 102 % of control
[12]
  T/C: 94 % of control
[13]
  T/C: 95 % of control

## O=C(O)CSc1ccc2c3c(cccc13)C(=O)c1ccccc1-2
dose: 6.25 mg/kg/injection, schedule: Q01DX009 (ip), vehicle: saline
  T/C: 100 % of control
[4]
  T/C: 99 % of control and 111 % of control
dose: 25.0 mg/kg/injection, schedule: Q01DX009 (ip), vehicle: saline
  T/C: 111 % of control
[7]
  T/C: 108 % of control
[8]
  T/C: 104 % of control

## ClCC1CSC(c2ccccc2)O1 (stereo not drawn)
[11]
  T/C: 90 % of control
[12]
  T/C: 109 % of control
[13]
  T/C: 101 % of control

## Clc1ccc(C2=Nc3ccccc3SC(c3ccco3)C2)cc1Cl (stereo not drawn)
dose: 100.0 mg/kg/injection, schedule: Q04DX002 (ip), vehicle: saline with Tween-80
  T/C: 100 % of control
dose: 200.0 mg/kg/injection, schedule: Q04DX002 (ip), vehicle: saline with Tween-80
  T/C: 96 % of control
dose: 400.0 mg/kg/injection, schedule: Q04DX002 (ip), vehicle: saline with Tween-80
  T/C: 102 % of control

## O=S(=O)(c1ccc(NC(=S)N2CCOCC2)cc1)N1CCCCC1
dose: 50.0 mg/kg/injection, schedule: Q01DX009 (ip), vehicle: Klucel (hydroxypropylcellulose) (HPC)
  T/C: 100 % of control
dose: 100.0 mg/kg/injection, schedule: Q01DX009 (ip), vehicle: Klucel (hydroxypropylcellulose) (HPC)
  T/C: 96 % of control
dose: 200.0 mg/kg/injection, schedule: Q01DX009 (ip), vehicle: Klucel (hydroxypropylcellulose) (HPC)
  T/C: 97 % of control

## C/C(=C1/N=C(c2ccccc2)OC1=O)c1ccccc1
dose: 50.0 mg/kg/injection, schedule: Q01DX005 (ip), vehicle: saline with Tween-80
  T/C: 98 % of control
dose: 100.0 mg/kg/injection, schedule: Q01DX005 (ip), vehicle: saline with Tween-80
  T/C: 96 % of control
dose: 200.0 mg/kg/injection, schedule: Q01DX005 (ip), vehicle: saline with Tween-80
  T/C: 98 % of control

## COc1cccc(CN2CCN(/N=C/c3c4c(O)c5c(O)c(C)c6c(c5c3O)C(=O)C(C)(O/C=C/C(OC)C(C)C(OC(C)=O)C(C)C(O)C(C)C(O)C(C)/C=C/C=C(C)C(=O)N4)O6)CC2)c1 (stereo not drawn)
dose: 12.5 mg/kg/injection, schedule: Q01DX009 (ip), vehicle: saline with Tween-80
  T/C: 120 % of control
dose: 25.0 mg/kg/injection, schedule: Q01DX009 (ip), vehicle: saline with Tween-80
  T/C: 118 % of control
[11]
  T/C: 112 % of control and 117 % of control
[12]
  T/C: 121 % of control

## CCn1c(-c2c(Cl)cc(O)cc2Cl)cc2c(Cl)cc(O)cc21
[9]
  T/C: 87 % of control
[10]
  T/C: 92 % of control

## Cc1ccc(NC(=O)N2CCCCC2)cc1[N+](=O)[O-]
[1]
  T/C: 99 % of control
[2]
  T/C: 98 % of control
[3]
  T/C: 96 % of control

## C=C(C#N)CSc1c(Cl)c(Cl)c(Cl)c(Cl)c1Cl
dose: 25.0 mg/kg/injection, schedule: Q04DX003 (ip), vehicle: Klucel (hydroxypropylcellulose) (HPC)
  T/C: 88 % of control
dose: 50.0 mg/kg/injection, schedule: Q04DX003 (ip), vehicle: Klucel (hydroxypropylcellulose) (HPC)
  T/C: 91 % of control
dose: 100.0 mg/kg/injection, schedule: Q04DX003 (ip), vehicle: Klucel (hydroxypropylcellulose) (HPC)
  T/C: 93 % of control and 95 % of control
dose: 200.0 mg/kg/injection, schedule: Q04DX003 (ip), vehicle: Klucel (hydroxypropylcellulose) (HPC)
  T/C: 100 % of control and 103 % of control
dose: 400.0 mg/kg/injection, schedule: Q04DX003 (ip), vehicle: Klucel (hydroxypropylcellulose) (HPC)
  T/C: 105 % of control

## O=C1CCSC(=S)N1c1cc(Cl)c(Cl)cc1Cl
dose: 50.0 mg/kg/injection, schedule: Q01DX009 (ip), vehicle: suspension in saline
  T/C: 106 % of control
dose: 100.0 mg/kg/injection, schedule: Q01DX009 (ip), vehicle: suspension in saline
  T/C: 108 % of control
dose: 200.0 mg/kg/injection, schedule: Q01DX009 (ip), vehicle: suspension in saline
  T/C: 109 % of control

## COc1cc(N=C=S)ccc1NC(=O)c1cc(Br)cc(Br)c1O
[6]
  T/C: 106 % of control
[14]
  T/C: 101 % of control
dose: 400.0 mg/kg/injection, schedule: Q01DX001 (ip), vehicle: Klucel (hydroxypropylcellulose) (HPC)
  T/C: 106 % of control
